Experimental data: patent publication US20030144346A1, “Methods and compositions for regulation of 5-alpha reductase activity” (priority 1997, published 2003)

Key:
[1] = target: T1, type 1 human 5α-reductase (HRED1) (Homo sapiens, UniProt P18405); experiment: Cell free assay of 5α-reductase, microsomes of rat 1A cells expressing type 1 isoenzyme (HRED1); type: biochemical; design: expressed in transfected cells; host or cells: rat 1A cells infected with pMV7 retrovirus; microsomes; conditions: for HRED1 % Inhibition @ 100 μM: Table 5; for inhibitory activity against type 1 isoenzyme, in words: cell-free assay;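 on all read-outs here: microsomes from rat 1A cells expressing human type 1 5α-reductase, conversion of radiolabeled testosterone to dihydrotestosterone quantified by thin layer chromatography with radioanalytic scanning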
T1 sequence (P18405 1-259): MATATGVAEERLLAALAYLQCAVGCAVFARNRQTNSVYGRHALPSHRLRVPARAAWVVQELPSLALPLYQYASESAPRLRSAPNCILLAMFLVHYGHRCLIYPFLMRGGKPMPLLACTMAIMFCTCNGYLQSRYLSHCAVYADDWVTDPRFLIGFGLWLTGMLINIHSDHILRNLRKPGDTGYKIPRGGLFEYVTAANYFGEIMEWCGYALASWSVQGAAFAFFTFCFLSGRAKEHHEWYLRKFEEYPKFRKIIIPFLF

[2] = target: T1, type 1 human 5α-reductase (HRED1); experiment: Whole cell assay of 5α-reductase, type 1 isoenzyme; type: cell-based; design: expressed in transfected cells; host or cells: rat 1A cells infected with pMV7 retrovirus;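 further: intact rat 1A cells engineered to express the human type 1 5α-reductase isozyme serve as the enzyme source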
[3] = target: T2, type 2 human 5α-reductase (HRED2) (Homo sapiens, UniProt P31213); experiment: Whole cell assay of 5α-reductase, type 2 isoenzyme; type: cell-based; design: expressed in transfected cells; host or cells: rat 1A cells infected with pMV7 retrovirus; conditions: for inhibition at 100 µM / HRED2 % Inhibition @ 100 μM: Table 7; for IC50: Table 7, read-out: HCRED2 IC50;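 on all read-outs here: intact rat 1A cells genetically modified to carry human type 2 5α-reductase served as the enzyme source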
T2 sequence (P31213 1-254): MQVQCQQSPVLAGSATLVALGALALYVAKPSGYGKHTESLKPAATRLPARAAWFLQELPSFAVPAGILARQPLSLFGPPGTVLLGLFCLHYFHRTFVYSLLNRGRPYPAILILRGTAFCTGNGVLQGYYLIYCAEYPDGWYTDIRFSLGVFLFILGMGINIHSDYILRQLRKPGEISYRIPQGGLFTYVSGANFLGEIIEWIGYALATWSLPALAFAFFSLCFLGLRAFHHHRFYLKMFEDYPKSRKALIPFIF

[4] = target: T2, type 2 human 5α-reductase (HRED2); experiment: Cell free assay of 5α-reductase, microsomes of rat 1A cells expressing type 2 isoenzyme (HRED2); type: biochemical; design: expressed in transfected cells; host or cells: rat 1A cells infected with pMV7 retrovirus; microsomes; conditions: for HRED2 % Inhibition @ 100 μM: Table 5;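 on all read-outs here: labeled testosterone and its product dihydrotestosterone measured in microsomal reaction extracts via thin layer chromatography plus radioanalytic scanning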
[5] = cell free assay, Table 5 epigallocatechin derivatives, read-out: HRED1 IC50
[6] = whole cell assay, Table 7, read-out: HCRED1 IC50
[7] = cell free assay, Table 5 epigallocatechin derivatives, read-out: HRED2 IC50
[8] = 100 uM, cell free assay, Table 2
[9] = cell free assay, Table 2 catechols, read-out: HRED1 IC50
[10] = cell free assay, Table 2 catechols, read-out: HRED2 IC50
[11] = read-out: HRED1 % Inhibition @ 100 μM
[12] = HCRED1 IC50, whole cell assay, Table 7
[13] = 100 uM, cell free assay, Table 2, read-out: HRED1 % Inhibition @ 100 uM
[14] = 100 uM, cell free assay, Table 2, read-out: HRED2 % Inhibition @ 100 uM

Row | SMILES | IC50 [3] | HRED1 % Inhibition @ 100 μM ([1]; cell free assay) | IC50 [1, 5] | HRED1 % Inhibition @ 100 μM ([2]; whole cell assay, Table 7) | IC50 [2, 6] | HRED2 % Inhibition @ 100 μM [3] | HRED2 % Inhibition @ 100 μM ([4]; 100 μM, cell free assay) | IC50 [4, 7] | further results
1 | Cc1cc2c(C(C)C)c(O)c(O)c(C=O)c2c(O)c1-c1c(C)cc2c(C(C)C)c(O)c(O)c(C=O)c2c1O [Gossypol] | 6 µM |  |  |  |  |  |  |  | IC50 [1]: 7 µM; inhibition at 100 µM ([1]; read-out: HRED1 % Inhibition @ 100 uM): 99%; IC50 [2]: 7 µM; inhibition at 100 µM ([2]; whole cell assay, Table 7): 100%; inhibitory activity in the whole cell assay, type 1 isoenzyme, in words ([2]; whole cell assay): active; inhibition at 100 µM [3]: 99%; IC50 [4]: 21 µM; inhibition at 100 µM ([4]; read-out: HRED2 % Inhibition @ 100 uM): 99%
2 | COc1cc(C(=O)OC2Cc3c(O)cc(O)cc3OC2c2cc(O)c(O)c(O)c2)cc(OC)c1OC (stereo not drawn) [HZIV 63] | > 100 µM | 94% | 311 µM | 12% | > 100 µM | 7% | 20% | > 100 µM | 
3 | Cc1c(O)cc(C(=O)OC2Cc3c(O)cc(O)cc3OC2c2cc(O)c(O)c(O)c2)cc1O (stereo not drawn) [HZIV 68] | > 100 µM | 93% | 29 µM | 40% | > 100 µM | 34% | 51% | 99 µM | 
4 | COc1cc(C(=O)OC2Cc3c(O)cc(O)cc3OC2c2cc(O)c(O)c(O)c2)cc(OC)c1O (stereo not drawn) [HZIV 75] | 62 µM | 97% | 29 µM | 83% | 43 µM | 72% | 21% | > 100 µM | 
5 | COc1cc(CCNC(=O)C=Cc2ccc(O)c(O)c2)ccc1O [HZIV 90] | > 100 µM |  |  | 34% | > 100 µM | 14% |  |  | HRED1 % Inhibition @ 100 uM [1, 8]: 23%; IC50 [1, 9]: > 100 µM; HRED2 % Inhibition @ 100 uM [4, 8]: 13%; IC50 [4, 10]: > 100 µM
6 | CN(C)c1ccc(C(=O)OC2Cc3c(O)cc(O)cc3OC2c2cc(O)c(O)c(O)c2)cc1 (stereo not drawn) [HZIV 92] | 80 µM | 98% | 23 µM | 94% | 64 µM | 62% | 45% | > 100 µM | 
7 | O=C(OC1Cc2c(O)cc(O)cc2OC1c1cc(O)c(O)c(O)c1)c1ccncc1 (stereo not drawn) [HZIV 107] | > 100 µM | 52% | 98 µM | 23% | > 100 µM | 2% | 39% | > 100 µM | 
8 | O=C(OC1Cc2c(O)cc(O)cc2OC1c1cc(O)c(O)c(O)c1)c1ccc2ccccc2c1 (stereo not drawn) [HZIV 120] | 57 µM | 99% | 23 µM | 97% | 49 µM | 96% | 97% | 66 µM | 
9 | CCCCCC=CCC=CCC=CCCCCC(=O)OC1Cc2c(O)cc(O)cc2OC1c1cc(O)c(O)c(O)c1 (stereo not drawn) [HZIV 142] | 14 µM | 97% | 25 µM | 99% | 8 µM | 98% | 93% | 63 µM | 
10 | O=C(OC1Cc2c(O)cc(O)cc2OC1c1cc(O)c(O)c(O)c1)C1CCCCC1 (stereo not drawn) [HZIV 144] | > 100 µM | 88% | 49 µM | 12% | > 100 µM | 7% | 38% | > 100 µM | 
11 | CC(=O)OC1Cc2c(O)cc(O)cc2OC1c1cc(O)c(O)c(O)c1 (stereo not drawn) [HZIV 145] | > 100 µM | 35% | > 100 µM | 8% | > 100 µM | 9% | 8% | > 100 µM | 
12 | CCCCCCCCCCCCCCCCCC(=O)OC1Cc2c(O)cc(O)cc2OC1c1cc(O)c(O)c(O)c1 (stereo not drawn) [HZIV 148] | 74 µM | 31% | > 100 µM | 90% | 42 µM | 81% | 0% | > 100 µM | 
13 | CCCCC=CCCCCCCCC(=O)OC1Cc2c(O)cc(O)cc2OC1c1cc(O)c(O)c(O)c1 (stereo not drawn) [HZIV 160] | 8 µM | 99% | 29 µM | 99% | 7 µM | 98% | 96% | 76 µM | inhibitory activity against type 1 isoenzyme, in words [1]: effective; inhibitory activity in the whole cell assay, type 1 isoenzyme, in words ([2]; whole cell assay): effective
14 | CCCCCC(=O)OC1Cc2c(O)cc(O)cc2OC1c1cc(O)c(O)c(O)c1 (stereo not drawn) [HZIV 169] | > 100 µM | 90% | 47 µM | 10% | > 100 µM | 0% | 39% | > 100 µM | 
15 | COc1cc(C(=O)C=Cc2ccc(N(C)C)cc2)cc(OC)c1OC [HZIV-82] | > 100 µM |  |  | 79% | 3 µM | 15% |  |  | HRED1 % Inhibition @ 100 uM [1, 8]: 43%; IC50 [1, 9]: > 100 µM; inhibitory activity against type 1 isoenzyme, in words [1]: little activity; inhibitory activity in the whole cell assay, type 1 isoenzyme, in words ([2]; whole cell assay): very active; HRED2 % Inhibition @ 100 uM [4, 8]: 0%; IC50 [4, 10]: > 100 µM
16 | O=c1c(O)c(-c2ccc(O)cc2)oc2cc(O)cc(O)c12 [Kaempferol] | 20 µM |  |  |  | 79 µM |  |  |  | inhibition at 100 µM ([1]; 100 uM, cell free assay, Table 1, read-out: HRED1 % Inhibition @ 100 uM): 22%; IC50 ([1]; cell free assay, Table 1 flavanoids, read-out: HRED1 IC50): > 100 µM; inhibition at 100 µM ([2]; whole cell assay, Table 7): 60%; inhibitory activity in the whole cell assay, type 2 isoenzyme, in words [3]: significant inhibitory activity; inhibition at 100 µM [3]: 85%; inhibition at 100 µM ([4]; 100 uM, cell free assay, Table 1, read-out: HRED2 % Inhibition @ 100 uM): 62%; IC50 ([4]; cell free assay, Table 1 flavanoids, read-out: HRED2 IC50): 12 µM
17 | CCCCC/C=C\C/C=C\CCCCCCCC(=O)O [Linoleic Acid, Linoleic Acid C18:2 CIS 9,12] | 25 µM |  |  |  | 40 µM |  |  |  | IC50 ([1]; cell free assay, Table 6 fatty acids, read-out: HRED1 IC50): 9 µM; IC50 ([4]; cell free assay, Table 6 fatty acids, read-out: HRED2 IC50): 19 µM
18 | CC1=CC(=O)c2ccccc2C1=O [Menadione] | 79 µM |  |  |  |  |  |  |  | IC50 [1]: 6 µM; inhibitory activity against type 1 isoenzyme, in words [1]: potent cell-free inhibitors; inhibition at 100 µM [1, 11]: 77%; inhibition at 100 µM ([2]; whole cell assay, Table 7): 82%; IC50 [2, 12]: 51 µM; inhibitory activity in the whole cell assay, type 1 isoenzyme, in words ([2]; whole cell assay): moderate activity; inhibition at 100 µM [3]: 62%; inhibition at 100 µM ([4]; 100 μM, cell free assay, Table 4, read-out: HRED2 % Inhibition @ 100 μM): 81%; IC50 ([4]; cell free assay, Table 4 quinones, read-out: HRED2 IC50): 5 µM; inhibitory activity against type 2 isoenzyme, in words ([4]; cell-free assay): potent cell-free inhibitors
19 | COC(=O)c1cc(O)c(O)c(O)c1 [Methylgallate] | > 100 µM |  |  |  | > 100 µM |  |  |  | inhibition at 100 µM [1, 13]: 5%; IC50 [1, 9]: > 100 µM; inhibition at 100 µM ([2]; whole cell assay, Table 7): 0%; inhibition at 100 µM [3]: 0%; inhibition at 100 µM [4, 14]: 3%; IC50 [4, 10]: > 100 µM
20 | CCCCCCCCOC(=O)c1cc(O)c(O)c(O)c1 [Octyl Gallate] | 18 µM |  |  |  | 7 µM |  |  |  | inhibition at 100 µM [1, 13]: 99%; IC50 [1, 9]: 27 µM; inhibition at 100 µM ([2]; whole cell assay, Table 7): 99%; inhibitory activity in the whole cell assay, type 1 isoenzyme, in words ([2]; whole cell assay): active; inhibition at 100 µM [3]: 94%; inhibition at 100 µM [4, 14]: 90%; IC50 [4, 10]: 58 µM
21 | CCCCCCCC/C=C\CCCCCCCC(=O)O [Oleic Acid, Oleic Acid C18:1 CIS 9] | > 100 µM |  |  |  |  |  |  |  | IC50 [1]: 10 µM; inhibition at 100 µM [1, 11]: 99%; inhibition at 100 µM ([2]; whole cell assay, Table 7): 58%; IC50 [2, 12]: 83 µM; inhibition at 100 µM [3]: 45%; IC50 [4]: 42 µM; inhibition at 100 µM ([4]; read-out: HRED2 % Inhibition @ 100 μM): 86%
